These are literature values, as cited in US20090234270A1, “Therapy and device for treatment of nail infections” (Ondine International, Ltd., priority 2008, published 2009).

The conditions of data set [1]: in vivo, po.

For `OC(Cn1cncn1)(Cn1cncn1)c1ccc(F)cc1F` [Fluconazole], in data set [1], the “side effects” value is “severe side effects”.
With `COC1=CC(=O)C[C@@H](C)[C@]12Oc1c(Cl)c(OC)cc(OC)c1C2=O` [Griseofulvin], the “efficacy in onychomycosis” value in the data set with onychomycosis (oral medicine) is given as “largely ineffectual”. Besides, in data set [1], the “side effects” value was “undesired side effects”.
For `CN(C/C=C/C#CC(C)(C)C)Cc1cccc2ccccc12` [Lamisil, terbinafine], the “nail clearing, share of patients” value in the data set on onychomycosis (oral, once a day for 90 days, clearing for one year) is 70-80%.
On to `CC12CCC(CC1=O)C2(C)C` (stereo not drawn) [camphor], for which the “solubility in water” value is “poorly soluble in water”.
Consider `CCC(C)n1ncn(-c2ccc(N3CCN(c4ccc(OCC5COC(Cn6cncn6)(c6ccc(Cl)cc6Cl)O5)cc4)CC3)cc2)c1=O` (stereo not drawn) [itraconazole], for which the “side effects” value in data set [1] is given as “somewhat severe”.
